What all share (type): biochemical
Experiment [1] has as its target T1, Progesterone Receptor (PR)-LBD (Homo sapiens, UniProt P06401).
T1 sequence (P06401 679-913 limits assumed): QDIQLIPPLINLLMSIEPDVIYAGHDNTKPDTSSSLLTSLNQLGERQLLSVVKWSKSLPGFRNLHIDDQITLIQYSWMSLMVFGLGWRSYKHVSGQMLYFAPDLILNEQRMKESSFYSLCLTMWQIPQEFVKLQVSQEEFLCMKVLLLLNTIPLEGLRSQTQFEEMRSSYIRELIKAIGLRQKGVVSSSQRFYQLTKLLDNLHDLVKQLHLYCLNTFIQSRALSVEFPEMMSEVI
The experiment can be described thus: PR coactivator antagonist assay. The conditions noted are these: Table 8; 10 nM progesterone; read-out: PR antagonism. The protocol: PR coactivator antagonist assay: Test compound (Top dose 10 μM, 4 fold serial dilution, 8 point dose response) and/or vehicle was incubated with the 2.5 nM Progesterone Receptor (PR)-LBD and coactivator peptide for 30 minutes at RT. Determination of the amount of complex formed is read spectrofluorimetrically (excitation: 337 nm, emission: 520/490 nm). Test compound-induced inhibition of 10 nM progesterone-induced fluorescence response by 50 percent or more (>50%) indicates receptor antagonist activity.

The next experiment deals with Human recombinant PARP2 (Homo sapiens, UniProt Q9UGN5). Put plainly: RBC HotSpot PARP2 assay (radioisotope-based filter binding). How it is done: (§1) The following methods are for evaluating the in vitro biology properties of the test articles. • a. RBC HotSpot Poly(ADP-ribose) Polymerases 1 (PARP1) and Poly(ADP-ribose) Polymerases 2 (PARP2) Assays: The assay was conducted at Reaction Biology Corporation (RBC; Malvern, PA). The assay principle is radioisotope-based filter binding assay where incorporation of radioisotope-labeled NAD^+ into the substrate captured on filter is detected after washout free NAD^+. Data were analyzed using Excel and GraphPad Prism software for IC50 curve fits. Each assay was conducted with PJ34 as a positive control. PARP1 assay: Human recombinant PARP1 at a final concentration of 2.5 nM was combined with histone H4 (20 μM) and test articles at various concentrations in reaction buffer (50 mM Tris-HCL, pH 8.0, 50 mM NaCl, 10 mM MgCl2, 1 mM DTT, 1% DMSO, and 20 μg/mL activated DNA). The solution was inoculated for 20 min at room temperature and the reaction initiated by adding [adenylate-^32P]-Nicotinamide Adenine Dinucleotide, ^32P-NAD^+ at a final concentration of 10 μM. After incubation for 2 hrs at room temperature, the reaction mixture was filtered and washed with 0.75% phosphoric acid for radioactivity detection. • ii. PARP2 assay: Human recombinant PARP2 at a final concentration of 2.5 nM was combined with histone H3 (20 μM) and test articles at various concentrations in reaction buffer (50 mM Tris-HCL, pH 8.0, 50 mM NaCl, 10 mM MgCl2, 1 mM DTT, 1% DMSO, and 20 μg/mL activated DNA). The solution was inoculated for 20 min at room temperature and the reaction was initiated by adding [adenylate-^32P]-Nicotinamide Adenine Dinucleotide, ^32P-NAD^+ at a final concentration of 10 μM. After incubation for 2 hrs at room temperature, the reaction mixture was filtered and washed with 0.75% phosphoric acid for radioactivity detection. • b. AR binding assay: AR in LNCaP cytosol was used for determining the binding affinity of test articles and the reference compound—progesterone (Sigma, Cat: E2785, St. Louis, MO). IC50 s were determined using 8 concentrations/compound. Cytosol is plated at 200 μg/well (100 μL) into a 96-well conical polypropylene plate (Agilent, Cat: 5042-1385, Santa Clara, CA) and mixed with 3 μL of test compound. After adding 100 μL of ^3H-methyltrienolone (PerkinElmer, Cat: NET590250UC, San Jose, CA), the plate was sealed and shaken at 300 rpm at 4° C. for 24 hours. Post incubation, 100 μL of radioligand adsorption buffer containing 10 mM Tris-HCl, pH 7.4; 1.5 mM EDTA; 1 mM DTT; 0.25% charcoal; 0.0025% dextran was added to individual wells. Plate was shaken for 15 min at 4° C. followed by centrifugation at 3000 rpm for 30 min at 4° C. 150 μL of supernatant is transferred into scint-tube (PerkinElmer, Cat: 6000192) and mixed with 2 mL of Ultima Gold Cocktail (PerkinElmer, Cat: 6013329). Radioactivity is counted using a TriCarb 2910 TR scintillation counter (PerkinElmer). Inhibition of the radioactivity by test articles was calculated using the equation below: % Inhibition=(1−(Assay well−Average_LC)/(Average_HC−Average_LC))×100%. • IC50 values (Table 6) were calculated and graphed using the model “log(inhibitor) vs. response—Variable slope” included in GraphPad Prism 5 (San Diego, CA). The Ki values were further calculated using the equation below where [L] is the radioligand concentration (1 nM) used in this study. Kd value was 0.332 nM. Ki=IC50/(1+[L]/Kd) • c. AR transactivation: Human AR cloned into a CMV vector backbone is used for the transactivation study. HEK-293 cells are plated at 80,000 cells per well of a 24 well plate in DME+5% csFBS. Twenty four hours later, the cells are transfected using Lipofectamine (Invitrogen, Carlsbad, CA) with 0.25 μg GRE-LUC, 0.01 μg CMV-LUC (renilla luciferase) and 25 ng of the AR in OPTIMEM medium. The cells are treated 24 hrs after transfection with various ligands (10^−12 to 10^−5 M final concentrations) and luciferase assay performed 48 hours after transfection. […]
Chain of Human recombinant PARP2 (Q9UGN5 whole entry): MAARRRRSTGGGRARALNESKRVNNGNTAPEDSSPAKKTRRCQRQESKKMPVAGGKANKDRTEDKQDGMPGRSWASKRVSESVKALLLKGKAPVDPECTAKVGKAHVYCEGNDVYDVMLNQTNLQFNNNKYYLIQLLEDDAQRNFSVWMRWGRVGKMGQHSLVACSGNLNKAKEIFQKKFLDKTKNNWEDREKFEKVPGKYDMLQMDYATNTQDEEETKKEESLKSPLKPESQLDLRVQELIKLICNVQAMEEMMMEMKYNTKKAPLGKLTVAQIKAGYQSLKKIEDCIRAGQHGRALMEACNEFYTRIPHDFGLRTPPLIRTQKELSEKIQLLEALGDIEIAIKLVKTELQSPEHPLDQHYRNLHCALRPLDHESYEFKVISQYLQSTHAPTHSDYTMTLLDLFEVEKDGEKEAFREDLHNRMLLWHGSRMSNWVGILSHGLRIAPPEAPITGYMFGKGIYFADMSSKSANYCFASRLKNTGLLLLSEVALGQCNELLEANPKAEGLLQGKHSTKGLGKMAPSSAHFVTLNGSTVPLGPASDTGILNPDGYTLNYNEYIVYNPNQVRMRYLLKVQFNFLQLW

In another experiment the target is Human recombinant PARP1 (Homo sapiens, UniProt P09874). Put plainly: RBC HotSpot PARP1 assay (radioisotope-based filter binding). The protocol:
as §1

Nine compounds from patent publication US11952349B2, “Anti-cancer nuclear hormone receptor-targeting compounds” (Nuvation Bio Inc., priority 2019, dated 2024) can be followed below.

Read-outs that look alike come from different tables or passages of the source.

Chain of Human recombinant PARP1 (P09874 whole entry): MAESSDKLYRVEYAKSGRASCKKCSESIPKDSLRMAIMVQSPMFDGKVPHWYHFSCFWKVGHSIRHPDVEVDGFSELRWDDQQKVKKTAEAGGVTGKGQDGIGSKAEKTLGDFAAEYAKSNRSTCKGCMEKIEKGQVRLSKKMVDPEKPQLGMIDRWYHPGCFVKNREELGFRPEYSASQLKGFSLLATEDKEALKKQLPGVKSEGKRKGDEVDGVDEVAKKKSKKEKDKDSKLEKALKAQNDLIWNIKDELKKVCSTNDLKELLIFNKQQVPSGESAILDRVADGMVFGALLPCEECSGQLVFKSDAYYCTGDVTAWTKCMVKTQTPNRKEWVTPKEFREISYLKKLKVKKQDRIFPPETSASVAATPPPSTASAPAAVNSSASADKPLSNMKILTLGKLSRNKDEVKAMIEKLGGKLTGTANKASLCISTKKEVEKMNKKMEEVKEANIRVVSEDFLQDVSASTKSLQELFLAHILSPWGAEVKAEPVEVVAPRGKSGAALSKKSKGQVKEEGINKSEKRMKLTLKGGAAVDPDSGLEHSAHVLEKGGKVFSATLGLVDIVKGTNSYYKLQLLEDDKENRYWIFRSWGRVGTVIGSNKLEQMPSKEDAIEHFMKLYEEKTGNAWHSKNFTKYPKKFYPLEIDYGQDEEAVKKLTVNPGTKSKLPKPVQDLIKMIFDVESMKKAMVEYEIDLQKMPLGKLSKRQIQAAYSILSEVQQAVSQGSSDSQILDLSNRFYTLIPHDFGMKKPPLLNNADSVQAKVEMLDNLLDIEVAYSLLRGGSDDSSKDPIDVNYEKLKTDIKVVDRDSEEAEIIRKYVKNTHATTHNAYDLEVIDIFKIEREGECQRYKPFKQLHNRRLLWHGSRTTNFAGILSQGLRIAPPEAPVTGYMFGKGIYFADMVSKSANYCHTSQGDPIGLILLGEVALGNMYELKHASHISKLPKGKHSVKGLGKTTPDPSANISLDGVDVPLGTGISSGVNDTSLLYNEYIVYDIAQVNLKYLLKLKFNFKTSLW

Take `C[C@]12CC[C@H]3[C@@H](CCC4=CC(=O)CC[C@@]43C)[C@@H]1CC[C@@H]2C(=O)COCCCCCC(=O)N1CCN(C(=O)c2cc(Cc3n[nH]c(=O)c4ccccc34)ccc2F)CC1` [Compound 1386, 4-(3-(4-(6-(2-((8S,9S,10R,13S,14S,17S)-10,13-dimethyl-3-oxo-2,3,6,7,8,9,10,11,12,13,14,15,16,17-tetradecahydro-1H-cyclopenta[a]phenanthren-17-yl)-2-oxoethoxy)hexanoyl)piperazine-1-carbonyl)-4-fluorobenzyl)phthalazin-1(2H)-one]: the IC50 in experiment [1] was more than 10 µM; at Human recombinant PARP2 (Table 9, read-out: PARP2), less than 0.001 µM; at Human recombinant PARP1 (Table 9, read-out: PARP1) it was 0.001 to 0.01 µM.

`CC#C[C@]1(O)CC[C@H]2[C@@H]3CCC4=CC(=O)CCC4=C3[C@@H](c3ccc(N(C)CCCCCC(=O)N4CCN(C(=O)c5cc(Cc6n[nH]c(=O)c7ccccc67)ccc5F)CC4)cc3)C[C@@]21C` [Compound 135, 4-(4-fluoro-3-(4-(6-((4-((8S,11R,13S,14S,17S)-17-hydroxy-13-methyl-3-oxo-17-(prop-1-ynyl)-2,3,6,7,8,11,12,13,14,15,16,17-dodecahydro-1H-cyclopenta[a]phenanthren-11-yl)phenyl)(methyl)amino)hexanoyl)piperazine-1-carbonyl)benzyl)phthalazin-1(2H)-one]: the IC50 is less than 0.01 µM in experiment [1]; less than 0.001 µM at Human recombinant PARP2 (Table 9, read-out: PARP2); 0.001 to 0.01 µM on Human recombinant PARP1 (Table 9, read-out: PARP1).

On to `C[C@]12C[C@H](CCCCCC(=O)N3CCN(C(=O)c4cc(Cc5n[nH]c(=O)c6ccccc56)ccc4F)CC3)C3=C4CCC(=O)C=C4CC[C@H]3[C@@H]1CCC2O` (stereo partly drawn) [Compound 138, 4-(4-fluoro-3-(4-(6-((8S,11S,13S,14S)-17-hydroxy-13-methyl-3-oxo-2,3,6,7,8,11,12,13,14,15,16,17-dodecahydro-1H-cyclopenta[a]phenanthren-11-yl)hexanoyl)piperazine-1-carbonyl)benzyl)phthalazin-1(2H)-one], for which the IC50 on Human recombinant PARP2 (Table 9, read-out: PARP2) was less than 0.001 µM; at Human recombinant PARP1 (Table 9, read-out: PARP1), less than 0.001 µM.

For the compound `CC#C[C@]1(O)CC[C@H]2[C@@H]3CCC4=CC(=O)CCC4=C3[C@@H](c3ccc(N(C)CCCCCC(=O)NCCOCCOCC(=O)N4CCN(C(=O)c5cc(Cc6n[nH]c(=O)c7ccccc67)ccc5F)CC4)cc3)C[C@@]21C` [Compound 1429, N-(2-(2-(2-(4-(2-fluoro-5-((4-oxo-3,4-dihydrophthalazin-1-yl)methyl)benzoyl)piperazin-1-yl)-2-oxoethoxy)ethoxy)ethyl)-6-((4-((8S,11R,13S,14S,17S)-17-hydroxy-13-methyl-3-oxo-17-(prop-1-ynyl)-2,3,6,7,8,11,12,13,14,15,16,17-dodecahydro-1H-cyclopenta[a]phenanthren-11-yl)phenyl)(methyl)amino)hexanamide], the IC50 in experiment [1] is less than 0.01 µM; at Human recombinant PARP2 (Table 9, read-out: PARP2), less than 0.001 µM; on Human recombinant PARP1 (Table 9, read-out: PARP1) it was less than 0.001 µM.

In the case of `C[C@]12Cc3cn[nH]c3C[C@@H]1CC[C@@H]1[C@@H]2CC[C@]2(C)[C@@H](OCCCCCC(=O)N3CCN(C(=O)c4cc(Cc5n[nH]c(=O)c6ccccc56)ccc4F)CC3)CC[C@@H]12` [Compound 1394, 4-(3-(4-(6-(((1S,3aS,3bR,5aS,10aS,10bS,12aS)-10a,12a-dimethyl-1,2,3,3a,3b,4,5,5a,6,7,10,10a,10b,11,12,12a-hexadecahydrocyclopenta[5,6]naphtho[1,2-f]indazol-1-yl)oxy)hexanoyl)piperazine-1-carbonyl)-4-fluorobenzyl)phthalazin-1(2H)-one], the IC50 on Human recombinant PARP2 (Table 9, read-out: PARP2) lay in the range of 0.001 to 0.01 µM; at Human recombinant PARP1 (Table 9, read-out: PARP1), 0.01 to 0.1 µM.

As to `CC(=O)O[C@]1(C(C)=O)CC[C@H]2[C@@H]3CCC4=CC(=O)CCC4=C3[C@@H](c3ccc(N(C)CCCCCC(=O)N4CCN(C(=O)c5cc(Cc6n[nH]c(=O)c7ccccc67)ccc5F)CC4)cc3)C[C@@]21C` [Compound 1378, (8S,11R,13S,14S,17R)-17-acetyl-11-(4-((6-(4-(2-fluoro-5-((4-oxo-3,4-dihydrophthalazin-1-yl)methyl)benzoyl)piperazin-1-yl)-6-oxohexyl)(methyl)amino)phenyl)-13-methyl-3-oxo-2,3,6,7,8,11,12,13,14,15,16,17-dodecahydro-1H-cyclopenta[a]phenanthren-17-yl acetate], the IC50 in experiment [1] was less than 0.01 µM; at Human recombinant PARP2 (Table 9, read-out: PARP2), less than 0.001 µM; at Human recombinant PARP1 (Table 9, read-out: PARP1), 0.001 to 0.01 µM.

Regarding `C[C@@]12CCC(=O)C[C@H]1CC[C@H]1[C@H]2CC[C@]2(C)[C@@H]1CC[C@H]2OCCCCCCNC(=O)c1cc(Cc2n[nH]c(=O)c3ccccc23)ccc1F` (stereo in doubt) [Compound 1426, N-(6-((5R,8S,9R,10R,13R,14R,17R)-10,13-dimethyl-3-oxohexadecahydro-1H-cyclopenta[a]phenanthren-17-yloxy)hexyl)-2-fluoro-5-((4-oxo-3,4-dihydrophthalazin-1-yl)methyl)benzamide], the IC50 is 0.001 to 0.01 µM on Human recombinant PARP2 (Table 9, read-out: PARP2) and more than 0.1 µM on Human recombinant PARP1 (Table 9, read-out: PARP1).

Take `CC(=O)O[C@]1(C(C)=O)CC[C@H]2[C@@H]3CCC4=CC(=O)CCC4=C3[C@@H](c3ccc(N(C)CCCCCC(=O)NCCOCCOCC(=O)N4CCN(C(=O)c5cc(Cc6n[nH]c(=O)c7ccccc67)ccc5F)CC4)cc3)C[C@@]21C` [Compound 1384, (8S,11R,13S,14S,17R)-17-acetyl-11-(4-((6-(2-(2-(2-(4-(2-fluoro-5-((4-oxo-3,4-dihydrophthalazin-1-yl)methyl)benzoyl)piperazin-1-yl)-2-oxoethoxy)ethoxy)ethylamino)-6-oxohexyl)(methyl)amino)phenyl)-13-methyl-3-oxo-2,3,6,7,8,11,12,13,14,15,16,17-dodecahydro-1H-cyclopenta[a]phenanthren-17-yl acetate]: the IC50 was less than 0.01 µM in experiment [1]; less than 0.001 µM at Human recombinant PARP2 (Table 9, read-out: PARP2); 0.001 to 0.01 µM at Human recombinant PARP1 (Table 9, read-out: PARP1).

Turning to `Cn1ncnc1C1c2n[nH]c(=O)c3cc(F)cc(c23)N[C@@H]1c1ccc(NC(=O)CCCCCO[C@@H]2CC[C@H]3[C@@H]4CC[C@H]5CCCC[C@]5(C)[C@H]4CC[C@]23C)cc1` (stereo partly drawn) [Compound 1128, 6-((5R,8R,9S,10S,13S,14S,17R)-10,13-dimethylhexadecahydro-1H-cyclopenta[a]phenanthren-17-yloxy)-N-(4-((8S)-5-fluoro-9-(1-methyl-1H-1,2,4-triazol-5-yl)-3-oxo-3,7,8,9-tetrahydro-2H-pyrido[4,3,2-de]phthalazin-8-yl)phenyl)hexanamide], the IC50 is 0.014 µM on Human recombinant PARP2 (Table 5, in vitro results, read-out: PARP2 IC50) and 0.252 µM on Human recombinant PARP1 (Table 5, in vitro results, read-out: PARP1 IC50).
